For one test, the target named is T1, I-A^s (Mus musculus, UniProt P06345+P14437).
T1 sequence (P14437 1-233): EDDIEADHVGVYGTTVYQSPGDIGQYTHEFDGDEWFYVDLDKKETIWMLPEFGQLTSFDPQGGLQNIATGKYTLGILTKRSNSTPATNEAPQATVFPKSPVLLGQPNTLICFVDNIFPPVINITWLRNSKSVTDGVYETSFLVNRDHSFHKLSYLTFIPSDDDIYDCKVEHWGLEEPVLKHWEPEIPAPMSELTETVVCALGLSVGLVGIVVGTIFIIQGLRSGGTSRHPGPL
T1 sequence (P06345 28-263): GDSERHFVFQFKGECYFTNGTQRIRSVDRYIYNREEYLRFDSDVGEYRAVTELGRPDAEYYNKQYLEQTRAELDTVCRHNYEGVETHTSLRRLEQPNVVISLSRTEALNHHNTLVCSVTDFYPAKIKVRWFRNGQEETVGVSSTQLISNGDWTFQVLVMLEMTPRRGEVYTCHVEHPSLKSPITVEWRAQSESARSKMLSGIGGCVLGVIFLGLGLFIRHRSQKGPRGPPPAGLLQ
In words: Class II peptide binding assay on purified I-A^s molecules.

Test [1] has as its system MBP autoantibodies affinity-purified from CNS lesions. The conditions noted are these: autoantibodies from CNS lesions of 12 postmortem MS cases; ref [19], [21]; cited from earlier work.

We go through 5 molecules from publication PMC2193020 (The Journal of Experimental Medicine, 1999).

Ends that are not written are not given here.

The IC50 is the concentration that gives 50% inhibition. The molecule `CC(C)C[C@H](NC(=O)[C@H](CCCNC(=N)N)NC(=O)[C@H](CCCNC(=N)N)NC(=O)CNC(=O)CN)C(=O)N[C@@H](Cc1ccccc1)C(=O)N[C@@H](Cc1ccccc1)C(=O)N[C@H](C(=O)N[C@@H](CCCCN)C(=O)N[C@@H](C)C(=O)N[C@@H](Cc1c[nH]cn1)C(=O)N[C@H](C(=O)N[C@@H](CCCNC(=N)N)C(=O)N[C@@H](CCC(=O)O)C(=O)O)C(C)C)C(C)C` [Herpes simplex DNA pol] showed an IC50 at I-A^s of 551 nM.

In turn, `CC[C@H](C)[C@H](NC(=O)[C@H](CC(N)=O)NC(=O)[C@H](CCCCN)NC(=O)[C@H](Cc1ccccc1)NC(=O)[C@H](Cc1ccccc1)NC(=O)[C@H](Cc1c[nH]cn1)NC(=O)[C@@H](NC(=O)[C@@H](NC(=O)[C@@H]1CCCN1C(=O)[C@H](CC(N)=O)NC(=O)[C@@H](N)CCC(=O)O)C(C)C)C(C)C)C(=O)N[C@H](C(=O)N[C@H](C(=O)N1CCC[C@H]1C(=O)N[C@@H](CCCNC(=N)N)C(=O)O)[C@@H](C)O)C(C)C` [MBPp85–99, reference compound] showed an IC50 at I-A^s of 667 nM.

For the molecule IGGRVHFFKDISPIA [HPV 7], at I-A^s, the IC50 was found to be 208 nM.

IGGRVHFFRDISPIG [HPV 40] showed an IC50 on I-A^s of 180 nM.

As for VHFFKNIVTPRTP [MBPp87–99], in test [1], the “Inhibition of autoantibody binding to MBP” value is listed as over 95%.
